# Read-outs that look alike come from different tables or passages of the source.
# Assays:
# total IgM and total IgG = assay: 810S-treated baboons: total IgM and total IgG by ELISA; assay type: in vivo, baboon; conditions: all 3 animals, throughout the experiment
# Protocol: FIG. 28 is a graph of baboon 46-98 antibody response to 810S. Baboon 46-98 was treated with 810S (50 mg/kg) every 3 days for a total of 6 treatments. Serum was analyzed for IgM and IgG antibodies directed against the α-gal epitope (XIgM or XIgG), as well as for total IgM (TotIgM) or total IgG (TotIgG) by ELISA. The percent antibody remaining was calculated using baseline values as 100%.
# (§1) A total of 6 baboons were used. Three baboons (designated 51-98, 48-98 and 47-98) underwent immunoapheresis (IP) using α-gal columns, with plasma from 3 blood volumes being passed over the columns every 3 days for a total of 6 treatments. Three other baboons (designated 46-98, 52-98, 50-98) received IV infusions of 810S at 50 mg/kg every 3 days for a total of 6 treatments. No immunosuppression or exposure to pig organs was included in the protocol.
# [1] = test system: α-gal antibody secreting cells (ASCs); assay: 810S vs immunoapheresis: peripheral α-gal antibody secreting cells (ELISPOT); assay type: in vivo, baboon
# Protocol: (§2) FIG. 34 compares the IgG response between IP and TPC (810) treated baboons. Baboons were either treated with 810S (50 mg/kg) every 3 days for a total of 6 treatments, or underwent a total of 6 immunoapheresis treatments using α-gal columns every 3 days. Peripheral blood mononuclear cells were collected and analyzed for the number of cells secreting IgG antibodies directed against α-gal using an ELISPOT analysis. The fold-change in antibody secreting cells (ASCs) was calculated by normalizing to baseline values. Values are represented as the mean from 3 baboons per group.
# as §2, with “35” for “34”, “IgM” for “IgG”
# as §1
# (§3) In both groups, serum samples and blood were collected to measure α-gal antibody levels and ASCs during the treatment period and during a follow-up period out to approximately 150-180 days.
# [2] = presence of 810S in baboon serum at day 30 (competition with human XNA binding to GAL-HSA); assay type: in vivo; conditions: day 30 serum
# Text: To investigate whether 810S was still in baboon serum by day 30, serum was mixed with human serum and analyzed by ELISA for competition with human XNA binding to GAL-HSA.
# [3] = test system: anti-Gal antibodies in baboon serum; assay: competition ELISA, inhibition of xenoreactive antibody activity (IC50); assay type: binding; conditions: for IC50 (FIG. 24): mass per volume of polymer, new pipette tip for each addition
# Protocol: Principle of the assay: A competition ELISA was set up in such a way that Gal-molecules linked to human serum albumin and immobilized onto a microtiter plate and Gal-molecules linked to PEG compete for anti-Gal antibodies in baboon serum. The antibodies binding to the Gal-HSA were visualized using secondary antibodies to these antibodies with appropriate color development agents. The color in the case in which no Gal-PEG was added was defined as 100%. The IC50 was defined, for FIG. 3, as the concentration of Gal-PEG needed to inhibit 50% of the color development when trying to detect antibodies immobilized onto the Gal-HSA plate. For FIG. 24, the IC50 is defined in terms of mass per volume, e.g. mg/mL, of polymer.
# Briefly, a 96 well microtiter was coated with 100 ul/well of a 30 ug/mL solution of αGal(1,3)Gal β 1-4 GlcNAc-human serum albumin (Gal-HSA) and incubated for 90 minutes at room temperature. After incubation with Gal-HSA, the plate was blocked with 1% HSA in PBS for 60 minutes.
# While the microtiter plate was coated and blocked, samples were prepared as follows: Fifteen different dilution solutions were prepared for 1 plate. The first dilution solution was 1% HSA in PBS. […] were obtained by preparing a 2.5 mL stock solution of 10 mM αGal(1,3)Gal β 1-4 GlcNAc in 1% HSA/PBS and then serially diluting 1/10 three times. Dilution solutions 6-15 were obtained by preparing a 2.5 mL stock solution of the first concentration of modified PEG and then serially diluting 1/10 nine times in 1% HSA in PBS.
# The plate was incubated for 90 minutes at 4° C. The plate was washed five times with PBS containing 0.5% Tween 20 and blot dried.
# When assaying for xenoreactive IgM, 100 ul/well of Goat anti-human IgM-biotin antibody, diluted 1/4000 in 1% HSA/PBS, was added.
# When assaying for xenoreactive IgG, 100 ul/well of Goat anti-human IgG-biotin antibody, diluted 1/4000 in 1% HSA/PBS, was added.
# The biotinylated secondary antibody was incubated for one hour at 4° C. and afterwards the plate was washed five times with PBS containing 0.5% Tween 20 and blot dried. Hereafter, 100 ul/well streptavidin-alkaline phosphatase conjugate was added at a dilution of 1/4000 in 1% HSA/PBS and incubated for 30 minutes at room temperature. The microtiter plate was washed five times with PBS containing 0.5% Tween 20 and blot dried. 150 ul developer per well was added and the plate incubated for 30 minutes at room temperature. The color development was stopped by addition of 40 ul/well of 3 M NaOH. The plate was read in a plate reader at wavelength of 405 nm.
# The IC50 data was calculated from the percent inhibition from the dilution of baboon control in 1% HSA/PBS which gave this highest point within the linear range.
# % Inhibition=(([OD of BC in HSA]−[OD of BC in αGal(1,3)Gal β 1-4 GlcNAc or PEG-(αGal(1,3)Gal β 1-4 GlcNAc)x])/OD of BC in HSA)*100
# [4] = test system: IgM and IgG antibodies directed against the α-gal epitope (XNA); assay: 810S vs immunoapheresis: circulating α-gal antibodies (serum ELISA); assay type: in vivo, baboon
# Protocol: (§4) FIG. 26 is a graph of IgM XNA Levels: 810S vs IP-treated baboons. Baboons were either treated with 810S (50 mg/kg) every 3 days for a total of 6 treatments, or underwent a total of 6 immunoapheresis treatments using α-gal columns every 3 days. Serum from each baboon was analyzed by ELISA for IgM antibodies directed against the α-gal epitope. The percent IgM XNAs remaining were calculated using baseline values from each animal as 100%.
# as §4, with “FIG. 27” for “FIG. 26”, “of IgG” for “of IgM”, “for IgG” for “for IgM”, “the a -gal” for “the α-gal”
# as §1, §3
# [5] = 50 mg/kg IV every 3 days, after the final (6th) treatment
molecule,measurement,setting,value
"(αGal(1,3)Gal β 1-4 GlcNAc)8-PEG [Example 810S]",total IgM and IgG levels,total IgM and total IgG,remained relatively constant
same,"IgM and IgG ASC levels, % of initial levels",[1]; 1 week after day 30,about 62%
same,"IgM and IgG ASCs, % of starting levels",[1]; after the sixth treatment,3-6%
same,"IgM and IgG ASCs, % initial levels",[1]; by the fourth treatment,about 10%
same,"IgM and IgG ASC levels, % of initial levels",[1]; by the second treatment with 810S,20-40%
same,"IgM and IgG ASC levels, % of initial levels","[1]; day 30, 2 weeks after 810S treatment was terminated",about 38%
same,810S still in baboon serum,[2],not still in circulation
same,IC50,"[3]; approximate, 810 S and its diafiltration fractions (Example 30)",0.005 µg/mL
same,IC50 (FIG. 24),[3],0.5 µg/mL
same,"IgG XNA levels, % of baseline values",[4]; [5],1-9%
same,"IgM XNA levels, % of baseline values",[4]; [5],1-3%
same,"circulating IgG and IgM XNA levels, % of initial levels","[4]; 50 mg/kg IV, after the 1st treatment, all 3 baboons",1-13%
same,"IgG XNA levels, % of baseline values",[4]; by day 30,20-33%
same,"IgM XNA levels, % of baseline values",[4]; by day 30,8-18%
same,"IgG XNA levels, % of baseline values","[4]; day 184, 2 810S-treated baboons",30-38%
same,"IgM XNA levels, % of baseline levels","[4]; day 184, 3rd baboon",60%
same,IgG XNA levels,"[4]; day 184, one (3rd) baboon",returned to baseline
same,"IgM XNA levels, % of baseline values","[4]; day 184, the other 2 baboons",24-39%
"(αGal(1,3)Gal β 1-4 GlcNAc)8-PEG [Example 410L]",IC50,[3],500 µg/mL
same,times more effective per coupled sugar than the free sugar,[3]; from IC50 of 410L versus free sugar,100 times
"(αGal(1,3)Gal β 1-4 GlcNAc)8, PEG [Example 810E]",IC50 (FIG. 24),[3],100 µg/mL
"CC(=O)N[C@H]1C(O)O[C@H](CO)[C@@H](O[C@@H]2O[C@H](CO)[C@H](O)[C@H](O[C@H]3O[C@H](CO)[C@H](O)[C@H](O)[C@H]3O)[C@H]2O)[C@@H]1O (stereo partly drawn) [free sugar, αGal(1,3)Gal β 1-4 GlcNAc, reference compound]",IC50,[3],50000 µg/mL
